Where a name gives a salt, the structure may show the parent alone.
Tested on: human malignant melanoma cell line (SEKI)
Assay: Combined effect in model animal transplanted with human malignant melanoma cell line (SEKI)
Type: in vivo
Settings: SEKI s.c. in nude mouse, Compound A 10 mg/kg, Compound B 100 mg/kg, oral once daily, average ± standard deviation
Procedure: The human malignant melanoma cell line SEKI (JCRB Cell bank) was cultured using a 10% FBS-containing RPM 1640 medium (SIGMA) in a 5% CO2 incubator under the condition of 37° C. When the cells reached a state of approximately 80% confluency, the cells were collected using trypsin-EDTA. To these cells, a Hanks' Balanced Salt Solution containing 50% Matrigel was added to prepare a suspension at 5.0×10^7 cells/mL. The cell suspension thus obtained was subcutaneously transplanted at the lateral side of the body of a nude mouse (CAnN.Cg-Foxn1nu/CrlCrlj, Charles River Laboratories Japan, Inc.) in an amount of 0.1 mL, where each group contained six mice. From 11 days after the transplantation, Compound A (10 mg/kg, once daily, for 17 days) and Compound B (100 mg/kg, once daily, for 17 days) were orally administered, either individually or both in a row.
Setting the initial day of administration at Day 0, the major axis and the minor axis of a tumor developed in each mouse were measured using Digimatic caliper (Mitsutoyo Corporation) thereafter on Day 3, 7, 10, 14, and 17.
The tumor volume and the relative tumor volume were calculated according to the equations below. TV=major axis (mm)×minor axis^2 (mm^2)/2 RTV=TV on the day of measurement/TV on the initial day of administration

SMILES	RTV (relative tumor volume) Day 3	RTV (relative tumor volume) Day 7	RTV (relative tumor volume) Day 10	RTV (relative tumor volume) Day 14	RTV (relative tumor volume) Day 17
COc1cc2nccc(Oc3ccc(NC(=O)NC4CC4)c(Cl)c3)c2cc1C(N)=O [Compound A, 4-(3-chloro-4-(cyclopropylaminocarbonyl)aminophenoxy)-7-methoxy-6-quinolinecarboxamide mesylate]	1.71 ± 0.19	2.88 ± 0.35	3.74 ± 0.53	5.06 ± 0.49	5.92 ± 0.50
CN1CCN(C2CCN(C(=O)Nc3cc(Oc4ccc(NC(=O)C5(C(=O)Nc6ccc(F)cc6)CC5)c(F)c4)ccn3)CC2)CC1 [Compound B, N-(2-fluoro-4-{[2-({[4-(4-methylpiperazin-1-yl)piperidin-1-yl]carbonyl}amino)pyridin-4-yl]oxy}phenyl)-N′-(4-fluorophenyl)cyclopropane-1,1-dicarboxamide tartrate]	1.76 ± 0.22	2.93 ± 0.57	4.06 ± 0.85	5.23 ± 0.20	5.80 ± 1.35
